# From ChEMBL document CHEMBL1131818, “Novel quinolinequinone antitumor agents: structure-metabolism studies with NAD(P)H:quinone oxidoreductase (NQO1)” (Bioorg Med Chem Lett, 1999)
# Assay: Metabolism by recombinant human NAD(P)H:quinone oxidoreductase (NQO1) was evaluated
# Assay type: ADME
row,SMILES,NADH oxidation [µM/min/mg]
1,COC1=CC(=O)c2nc(-c3cccs3)ccc2C1=O,32.1
2,COC1=CC(=O)c2nc(-c3ccc(C)cn3)ccc2C1=O,45.7
3,COC1=CC(=O)c2ncccc2C1=O,58.7
4,COC1=CC(=O)c2nc(-c3ccccn3)ccc2C1=O,50.5
5,COC1=CC(=O)c2c(cc(C)n2C)C1=O,5.31
6,COC1=CC(=O)c2nc(-c3ccc(C)cc3)ccc2C1=O,19.2
7,COC1=CC(=O)c2nc(-c3ccc(-c4ccccc4)cc3)ccc2C1=O,4.75
8,O=C1C(N2CCCC2)=CC(=O)c2ncccc21,26.2
9,COC1=CC(=O)c2nc(Cl)ccc2C1=O,100
10,COC1=C(N)C(=O)c2nc(-c3nc(C(=O)O)c(C)c(-c4ccc(OC)c(OC)c4O)c3N)ccc2C1=O [STREPTONIGRIN],47.4

# The next lines start with the values.
row,NADH oxidation [µM/min/mg],SMILES
1,28.8,COC1=CC(=O)c2nc(-c3ccccc3)ccc2C1=O
2,14,COC1=CC(=O)c2nc(-c3ccc4ccccc4c3)ccc2C1=O
3,33.3,COC1=CC(=O)c2nc(-c3cc4ccccc4o3)ccc2C1=O
4,25.1,COC1=CC(=O)c2nc(-c3cccc4ccccc34)ccc2C1=O
